Patent EP3087981A1, “HYGROPHORON B12 FOR USE IN THE TREATMENT OF A MYCOSIS” (Leibniz-Institut für Pflanzenbiochemie (IPB), priority 2015, dated 2016)
In brackets after ≈: the same amount, converted by molar mass.

Tested on: Malassezia pachydermatis Isolat CBS 1879
Assay: Dilution assay in 96-well microtiter plates, minimal inhibitory concentration (MHK)
Type: cell-based
Conditions: CBS1879, RPMI 1640 Medium, 2 bis 4 Tage bei 37 °C, visual evaluation, read-out: minimale Hemmkonzentration (MHK)
Description: Einer besonders bevorzugten Ausführungsform der Erfindung entsprechend wird Hygrophoron B^12 oder dessen Enantiomer, Epimere oder Diastereomere zur Verwendung bei der Behandlung einer Mykose eingesetzt, die durch Malassezia pachydermatis ausgelöst wird. Die Evaluierung der biologischen Eigenschaften des erfindungsgemäß verwendeten Hygrophorons B^12 ergab, dass Hygrophoron B^12 stark antimykotische Eigenschaften aufweist. Insbesondere weist Hygrophoron B^12 starke Aktivität gegen Malassezia pachydermatis auf. Figur 1 zeigt eine überraschend starke in vitro Aktivität des erfindungsgemäß verwendeten Hygrophorons B^12 gegen Malassezia pachydermatis, wobei die Aktivität mit dem Arzneistoff Terbinafin vergleichbar ist. Terbinafin ist ein synthetisches Antimykotikum und seit vielen Jahren das meist verordnete Präparat. In Figur 1 bezeichnet MHK die minimale HemmKonzentration (MHK). Sie ist die niedrigste Konzentration einer Substanz, bei der die Vermehrung von Mikroorganismen mit bloßem Auge nicht wahrgenommen werden kann. Die MHK wird mit einem sogenannten Titerverfahren bestimmt. Dabei wird die Konzentration von einem Wirkstoff (hier Terbinafin und Hygrophoron B^12) bestimmt, der das Wachstum von Malassezia pachydermatis gerade noch hemmt. Die MHK wird in Mikrogramm pro Milliliter (µg/ml) angegeben. […]

MIC: 0.17 µg/mL (≈ 0.544 µM)
SMILES: CCCCCCCCCCCC[C@@H](O)[C@@]1(O)C(=O)C=C[C@@H]1O [Hygrophoron B^12, (+)-cis-4,5-Dihydroxy-5-(1-hydroxytridecyl)cyclopent-2-enon]
